Data set [1] relates to A2780 human ovarian cancer cells. The experiment in a line: In vitro growth inhibition assay (SRB), A2780. It counts as cell-based. On the procedure: A2780 human ovarian carcinoma and MRC5 human fetal lung fibroblasts were obtained from the European Collection of Cell Cultures. Both cell lines were grown in Roswell Park Memorial Institute medium (RPMI-1640) supplemented with 10% of fetal calf serum, 1% of 2 mM glutamine and 1% penicillin/streptomycin. All cells were grown as adherent monolayers at 310 K in a 5% CO2-humidified atmosphere and passaged at ca. 70–80% confluency.
The antiproliferative activity of complexes 1–8 was determined in A2780 ovarian cancer cells and MRC5 fibroblasts. Briefly, 96-well plates were used to seed 5,000 cells per well. The plates were left to pre-incubate with drug-free medium at 310 K for 48 h before adding different concentrations of the compounds to be tested. A drug exposure period of 24 h was allowed. After this, supernatants were removed by suction and each well was washed with PBS. A further 72 h were allowed for the cells to recover in drug-free medium at 310 K. The sulforhodamine B (SRB) assay was used to determine cell viability. IC50 values, as the concentration that causes 50% cell death, were determined as duplicates of triplicates in two independent sets of experiments and their s.d. were calculated.

Data set [2] deals with A2780 ovarian cancer cells. The data set is described as follows: Cell viability on co-administration of Ru complexes (1/3 x IC50) with formate or acetate. The settings on record: for Cell viability / Cell viability percentages: A2780, complex 1/3 x IC50, 24 h. It is filed as cell-based, human. As to the method:
Cell viability assays were carried out with complexes 1–8 in A2780 ovarian cancer cells. These experiments were carried out as described above with the following modifications: a fixed concentration of each Ru complex equal to 1/3 × IC50 was used in co-administration with three different concentrations of sodium formate or sodium acetate (0.5, 1.0 and 2.0 mM). To prepare the stock solution of the drug, the complex was dissolved in 5% dimethylsulfoxide and diluted in a 1:1 mixture of 0.9% saline:cell culture medium. This stock was further diluted using RPMI-1640 until working concentrations were achieved. Separately, stock solutions of sodium formate or sodium acetate were prepared in saline. The complex and formate were added to each well independently, but within 5 min of each other.
Supplementary Table 7: Percent cell viability of A2780 ovarian cancer cells exposed to equipotent concentrations of ruthenium complexes 1-3 and 5-8 (1/3 x […]
The experiments included 48 h of pre-incubation and 72 h of drug recovery, both in drug-free medium at 310 K in a 5% CO2 humidified atmosphere. All the experiments were performed as duplicates of triplicates in independent experiments and the error bars were calculated as the standard deviation from the mean.
Supplementary Table 11: Cell viability (%) of A2780 ovarian cancer cells exposed […]
administered with different concentrations of sodium acetate (0, 0.5, 1 and 2 mM).
The experiments involved 48 h of pre-incubation and 72 h of drug recovery, both in […]
Cell viability percentages (%)
Complex Acetate concentration (mM)

Data set [3] relates to A2780 ovarian cancer cells. The data set is described as follows: Ruthenium accumulation in cancer cells (ICP-MS). It is filed as cell-based, human. The settings on record: for Cell Ru: A2780, 1/3 x IC50, 24 h drug exposure, no recovery time; for Cell accum.: A2780, 24 h, 1/3 x IC50. On the procedure:
Briefly, 1.5 × 10^6 cells per well were seeded on a six-well plate. […] After this time, cells were washed, treated with trypsin-EDTA, counted and cell pellets were collected. Each pellet was digested overnight in concentrated nitric acid (73%) at 353 K; the resulting solutions were diluted using double-distilled water to give a final concentration of 5% HNO3 and the amount of Ru taken up by the cells was determined by ICP–MS. […]
Supplementary Table 3: Antiproliferative activity of complexes 1-8 in A2780 ovarian cancer cells and their cellular accumulation (expressed as ng Ru per million cells).
The latter experiments were carried out using equipotent concentrations of the […]
experiments were performed as duplicates of triplicates in independent experiments and the error bars were calculated as the standard deviation from the mean. […]

Data set [4] deals with calf thymus DNA. The data set is described as follows: Interaction with calf thymus DNA (ethanol precipitation, ICP-MS of Ru). It is filed as binding. The settings on record: for free Ru in supernatant: CT-DNA, 1:3 complex:base pairs, 310 K. On the procedure: Interaction with calf thymus DNA
Complex 2 was chosen as representative of the series. A stock solution of complex 2 (0.7 mM in 5 % acetonitrile/water) was prepared and aliquots of 66 μL were added to a solution of CT-DNA (final ratio 1:3 complex: base pairs-DNA) in water, 2 mM cacodylate buffer and 2 mM NaCl. The reaction mixture was incubated at 310 K, and aliquots of 300 μL were taken at different intervals during a period of 27 h. The DNA was then precipitated by addition of ethanol (700 μL, final concentration 70% v/v). Ru complexes which are strongly bound to CT-DNA will precipitate together with the DNA upon addition of ethanol, and, therefore the ruthenium concentration in the supernatant should decrease. However, no changes in the Ru concentration were detected by ICP-MS showing that the interaction between the complex 2 and DNA is weak (t = 0 h / 64.2 ± 0.7 µM, t = 24 h/ 65.1 ± 0 .3 µM free Ru). In contrast complex 8

The test system of data set [5] is CT-DNA. The data set is described as follows: Thermal stability (melting temperature) of CT-DNA by UV-Vis. It counts as binding, calf. The settings on record: for Tm: CT-DNA, 1:3 complex:base pairs, 2 mM cacodylate pH 7.4, 2 h 310 K. As to the method: Supplementary Table 6: Melting temperature (Tm) of CT-DNA in the presence of 8 or complex 2 (ratio 1:3, complex: base pairs-DNA). The reactions were carried out in cacodylate buffer (2 mM, pH 7.4), and samples incubated for 2 h at 310 K. […]
a variation in melting temperature between free DNA and DNA in the presence of the corresponding complex. * […] from free DNA using a T-test analysis. ** p < 0.01 from free DNA using a T-test analysis […]
Thermal stability of CT-DNA
The melting temperature of CT-DNA in the presence and absence of complex 2 [(p-cym)Ru(TsEn)Cl] was determined by UV-Vis spectroscopy (Supplementary Table 6). Higher melting temperatures indicate increased stabilization of the DNA, which is the effect produced by DNA-intercalators and often by direct metal coordination to […]
the nucleobases.11 Destabilization of DNA can result in a decrease of the melting […]
In the presence of complex 8, the melting temperature of CT-DNA increased In agreement with the literature, 12 by 14 K, in 2 mM NaCl, 2 mM cacodylate buffer.
This increase is due to Ru binding to DNA as well as intercalation. 12 However, upon increasing the chloride concentration by ca. 10x (20 mM NaCl) the melting temperature of CT-DNA in the presence of complex 8, increased only by 7 K. This effect has previously been reported and it is attributed to the partial inhibition of hydrolysis, and, therefore, inhibition of coordination to DNA. 12, 13
Experiments performed in the presence of complex 2, in 2 mM cacodylate buffer and […]
NaCl, no decrease of the melting temperature was observed. […]

Where [6] appears, read: A2780, 24 h drug exposure, no formate.

From PMC4383003, “Transfer hydrogenation catalysis in cells as a new approach to anticancer drug design” (Nature Communications, 2015) come the findings set out here.

Where “and” joins values, the source holds several entries; their conditions need not be identical. Equal entries are not always repeated.

Turning to `CS(=O)(=O)[N-]CCN.[Cl-].[Ru+2].c1ccc(-c2ccccc2-c2ccccc2)cc1` [Complex 5, [(o-terp)Ru(MsEn)Cl]], the IC50 in data set [1] (A2780, Supplementary Table 3) came to 12.4 ± 0.9 µM. Besides, the Cell viability in data set [2] (formate 0 mM) is 73.59 ± 0.04%; in data set [2] (formate 0.5 mM) it was 71.9 ± 0.4%; in data set [2] (formate 1 mM), 44.2 ± 0.2%; in data set [2] (formate 2 mM), 5.8 ± 0.6%. Besides, the “Cell Ru” value in data set [3] is 2.8 ± 0.3 ng x 106 cells. Moreover, in data set [3], the Cell accum. is 2.8 ng Ru/10^6 cells.

In turn, `Cc1ccc(S(=O)(=O)[N-]CCN)cc1.[Cl-].[Ru+2].c1ccc(-c2ccccc2-c2ccccc2)cc1` [Complex 6, [(o-terp)Ru(TsEn)Cl]] showed an IC50 in data set [1] (A2780, Supplementary Table 3) of 15.8 ± 0.8 µM. Also, the Cell viability in data set [2] (formate 0 mM) amounted to 72.8 ± 0.9%; in data set [2] (formate 0.5 mM), 59 ± 3%; in data set [2] (formate 1 mM) it was 43.6 ± 1.4%; in data set [2] (formate 2 mM) it was 22.2 ± 0.8%. Further, the “Cell Ru” value in data set [3] came to 2.1 ± 0.4 ng x 106 cells.

`NCC[N-]S(=O)(=O)c1ccc(C(F)(F)F)cc1.[Cl-].[Ru+2].c1ccc(-c2ccccc2-c2ccccc2)cc1` [Complex 7, [(o-terp)Ru(TfEn)Cl]]: in data set [1] (A2780, Supplementary Table 3), inhibition was half-maximal at 21.2 ± 0.1 µM (IC50). Moreover, the Cell viability in data set [2] (formate 0 mM) is 40 ± 2%; in data set [2] (formate 0.5 mM) it was 20.8 ± 0.6%; in data set [2] (formate 1 mM), 11.9 ± 0.6%; in data set [2] (formate 2 mM), 2.5 ± 0.7%. For the same compound, the “decrease in cell survival” value in data set [2] (A2780, formate increased from 0 to 2 mM) is on record as “ca. 16 fold”. In addition, the “Cell Ru” value in data set [3] was 2.4 ± 0.3 ng x 106 cells. The Cell accum. in data set [3] came out at 2.4 ng Ru/10^6 cells.

Turning to `NCCN.[Cl-].[Ru+2].c1ccc(-c2ccccc2)cc1` [Complex 8, [(bip)Ru(en)Cl]^+, reference compound], the IC50 amounted to 2.2 µM in data set [1] (setting [6]) and 2.17 ± 0.08 µM in data set [1] (A2780, Supplementary Table 3). For the same compound, the figures for the Cell viability percentages in data set [2] (acetate 0 mM), in data set [2] (acetate 0.5 mM) and in data set [2] (acetate 1 mM) were 75.4 ± 2%, 73.1 ± 0.8% and 72 ± 1%, respectively. Also, the Cell viability is 71 ± 1% in data set [2] (formate 0.5 mM); 61 ± 1% in data set [2] (formate 1 mM); 39 ± 1% and ~39% in data set [2] (formate 2 mM). Moreover, the “free Ru in supernatant” value in data set [4] (t = 0 h) is 58.3 ± 0.3 µM; in data set [4] (t = 24 h) it was 48.5 ± 0.6 µM. Further, the “binding to calf thymus DNA” value in data set [4] (ICP-MS of Ru, up to 27 h at 310 K, 1:3 complex:DNA base pairs, 2 mM cacodylate pH 7.4, 2 mM NaCl) is given as “bind strongly”. For the same compound, the “increase of melting temperature of CT-DNA” value in data set [5] (2 mM NaCl, 2 mM cacodylate buffer) is -259 °C; in data set [5] (20 mM NaCl), -266 °C. For the same compound, the Tm stood at 63.8 ± 0.8 °C in data set [5] (2 mM NaCl) and 67.1 ± 0.6 °C in data set [5] (20 mM NaCl). The thermal shift (ΔTm) in data set [5] (versus free DNA, 20 mM NaCl) stood at 7.9 °C.

Take `N.N.[Cl][Pt][Cl]` [cisplatin, reference compound]: the concentration for half-maximal inhibition (IC50) in data set [1] (setting [6]) stood at 1.2 µM.

Turning to `O=C[O-].[Na+]` [formate, sodium formate], the “toxicity of formate itself to the cells” value in data set [2] (A2780, 0 to 2 mM) is on record as “non-toxic”.
